Measured values from patent publication US9486519B2, “Use of FLT3 ligand for enhancing immune responses in RNA immunization” (BioNTech AG, priority 2008, dated 2016).

What was measured:
macropinocytosis [1] = assay: Intranodal RNA immunization after Rottlerin pretreatment of lymph nodes, tetramer measurement; assay type: in vivo, C57Bl/6 mice; details: SIINFEKL-coding RNA 20 μg intranodally d0 and d3; lymph nodes pretreated
Procedure: (e) C57Bl/6 mice (n=3) were immunized intranodally on d0 and d3 with […]-coding RNA (20 μg). On both days the lymph nodes were pretreated with Rottlerin as described above. On day 8 the success of immunization was quantified by tetramer measurement in the peripheral blood. The success of intranodal RNA immunization correlated directly with the ability of cells to take up RNA by macropinocytosis.
To verify whether the in vivo inhibition of macropinocytosis has an effect on the efficiency of T cell priming after intranodal RNA immunization, C57/B16 mice (n=3) were immunized intranodally on d0 and d3 with […]-coding RNA (20 μg). On both days the lymph nodes were pretreated with Rottlerin as described above. The mean+SEM of the frequency of CD8+ antigen-specific T lymphocytes is shown. […] FIG. 6(e).
The main uptake mechanism of RNA uptake is macropinocytosis.

macropinocytosis [2] = assay: RNA uptake in lymph nodes after in vivo Rottlerin pretreatment, in-vivo bioluminescence; design: species or system C57Bl/6 mice; details: inguinal lymph nodes pretreated with 10 μM; luciferase-RNA 10 μg intranodally; 24 h
Procedure: To clarify whether macropinocytosis is also the uptake mechanism relevant in vivo for RNA in the lymph node, the inguinal lymph nodes of C57/B16 mice were pretreated with Rottlerin (n=4, 10 μM) and then luciferase-RNA (10 μg) was injected intranodally. After 24 h, the in-vivo bioluminescence signal was measured.

human iDCs = assay: RNA uptake by human iDCs pretreated with macropinocytosis inhibitors, luciferase test; assay type: cell-based; details: 15 min luciferase-RNA or Cy3-RNA
Procedure: (b-c) Human iDCs were pretreated with various inhibitors (dimethyl amiloride, cytochalasin D, LY294002, Rottlerin) and then coincubated for 15 min with luciferase-RNA or Cy3-RNA. After 24 h the luciferase signal was quantified in a standard luminescence test.
To verify whether the macropinocytosis constitutively active in iDCs is relevant for the uptake of naked RNA, human iDCs were pretreated with various inhibitors (dimethyl amiloride, cytochalasin D, LY294002, Rottlerin) and then coincubated for 15 min with luciferase-RNA or Cy3-RNA. After culture for a further 22 h, RNA uptake was quantified in a luciferase test. The mean+SEM is shown. The iDCs coincubated with Cy3-RNA (red) were fixed with paraformaldehyde and counterstained (Hoechst 33342, blue). […] FIG. 6(b-c).

[3] = tested on: RNA uptake in the lymph nodes; assay: Effect of Poly I:C on RNA uptake in lymph nodes, in-vivo bioluminescence; design: species or system C57Bl/6 mice; details: 20 μg s.c.; luciferase-RNA intranodally after 2 or 24 h
Procedure: (e) Effect of Poly I:C on RNA uptake. C57Bl/6 mice (n=4) were injected s.c. with PBS or Poly I:C (20 μg) and after 2 or 24 h, luciferase-RNA was applied intranodally. After 24 h the luciferase signal was quantified in a standard bioluminescence test.
In order to verify to what extent maturing adjuvants can also lead in vivo to a reduction of RNA uptake, we tested the effect of Poly I:C on RNA uptake; cf. FIG. 7(e). For this, C57/Bl6 mice (n=4) were injected s.c. with PBS or Poly I:C (20 μg) and after 2 or 24 h, luciferase-RNA was applied intranodally. The in-vivo bioluminescence was measured after a further 24 h. The mean+SEM is shown.

[4] = tested on: cell populations of the murine lymph node; assay: Effects of different Flt3L on the cellular composition in lymph nodes; assay type: in vivo, C57BL/6 mice; details: 0.4 mol i.p. day 0; lymph nodes day 10
Source text: On day 10 the lymph nodes of the mice were removed and characterized by flow cytometry. Dendritic cells (DCs (marker: CD11c^+/NK1.1^−)), CD4^+ helper T cells (marker: CD3^+/CD4^+/CD8^−/NK1.1^−), CD8^+ T cells (marker: CD3^+/CD8^+/CD4^−/NK1.1^−), CD19^+ B cells (marker: CD19^+/CD3^−/NK1.1^−).
In this experiment Flt3 ligand (Flt3-IgG4) was compared with commercially available Flt3 preparations with respect to the effect on different cell populations of the murine lymph node. A product recombinantly expressed in bacteria (Peprotech Flt3L; Peprotech, Hamburg, Germany) and a product expressed in human HEK293 cells (Humanzyme Flt3L, Humanzyme; Chicago Ill., U.S.A.) were used as commercially available Flt3 preparations. Human IgG4 (Sigma-Aldrich, Deisenhofen, Germany) served as control.
On day 10 both inguinal lymph nodes of the mice were removed, the cell count determined by means of a Neubauer chamber and the cell populations were characterized by flow cytometry.

[5] = Robinson et al., 2003; cited from earlier work

CC(=O)c1c(O)c(C)c(O)c(Cc2c(O)c3c(c(C(=O)/C=C/c4ccccc4)c2O)OC(C)(C)C=C3)c1O [Rottlerin]
vaccine action after inhibition of macropinocytosis (macropinocytosis [1]): almost complete loss of vaccine action
RNA uptake in the lymph node (macropinocytosis [2]): drastically reduced
inhibition of RNA uptake (human iDCs): more than 90%

Poly I:C
RNA uptake (in-vivo bioluminescence) [3]: sharp reduction in RNA uptake

B1: Flt3L (Humanzyme): commercially available Flt3 preparation expressed in human HEK293 cells (Humanzyme) (protein, UniProt P49771 27-235, looked up)
Fms-related tyrosine kinase 3 …: TQDCSFQHSPISSDFAVKIRELSDYLLQDYPVTVASNLQDEELCGGLWRLVLAQRWMERLKTVAGSKMQGLLERVNTEIHFVTKCAFQPPPSCLRFVQTNISRLLQETSEQLVALKPWITRQNFSRCLELQCQPDSSTLPPPWSPRPLEATAPTAPQPPLLLLLLLPVGLLLLAAAWCLHWQRTRRRTPRPGEQVPPVPSPQDLLLVEH
expansion of dendritic cells [4]: strong similarity

B2: Flt3L without IgG4 fusion: Flt3L without IgG4 fusion, published half-life value (Robinson et al., 2003) (protein, UniProt P49771 27-235, looked up)
Fms-related tyrosine kinase 3 …: TQDCSFQHSPISSDFAVKIRELSDYLLQDYPVTVASNLQDEELCGGLWRLVLAQRWMERLKTVAGSKMQGLLERVNTEIHFVTKCAFQPPPSCLRFVQTNISRLLQETSEQLVALKPWITRQNFSRCLELQCQPDSSTLPPPWSPRPLEATAPTAPQPPLLLLLLLPVGLLLLAAAWCLHWQRTRRRTPRPGEQVPPVPSPQDLLLVEH
published value for the half-life [5]: 5 h

B3: Flt3L (Peprotech): commercially available Flt3 preparation recombinantly expressed in bacteria (Peprotech) (protein, UniProt P49771 27-235, looked up)
Fms-related tyrosine kinase 3 …: TQDCSFQHSPISSDFAVKIRELSDYLLQDYPVTVASNLQDEELCGGLWRLVLAQRWMERLKTVAGSKMQGLLERVNTEIHFVTKCAFQPPPSCLRFVQTNISRLLQETSEQLVALKPWITRQNFSRCLELQCQPDSSTLPPPWSPRPLEATAPTAPQPPLLLLLLLPVGLLLLAAAWCLHWQRTRRRTPRPGEQVPPVPSPQDLLLVEH
expansion of dendritic cells [4]: only slightly potent
